Measured values from US20260199482A1, “BILE ACID-METRONIDAZOLE CONJUGATE AND USE THEREOF” (SOUTH CHINA UNIVERSITY OF TECHNOLOGY, priority 2022, published 2026).
≈ marks a conversion by molar mass, not a printed value. Read-outs that look alike come from different tables or passages of the source.

What was measured:
[1] = system: Clostridioides difficile ATCC 43255; test: MIC determination using broth microdilution method, anaerobic bacteria; type: cell-based; conditions: for MIC: ATCC43255, Clostridioides difficile ATCC 43255, broth microdilution, anaerobic, 37° C., 48 h; for inhibitory effect on Clostridioides difficile (ATCC 43255), in words: comment on Table 1
Description: 0.10 g of sterile cycloserine and 3.20 mg of sterile cefoxitin (filtered by a filter membrane and sterilized) were added to every 200 mL, mixed well, and poured into a sterile petri dish for later use.
S3, culture of Clostridioides difficile strain: 1) the strain stored at −80° C. was resuscitated in an anaerobic glove box with a cycloserine-cefoxitin-fructose agar medium plate, and statically cultured at 37° C. in a constant-temperature incubator for 48 h; • 2) single colonies were picked, and statically cultured in the brain heart infusion broth medium overnight at 37° C. in the constant-temperature incubator; and • 3) the bacterial solution that was statically cultured overnight was transferred into the anaerobic glove box with the brain heart infusion broth medium at a ratio of 1:100, and cultured for 3-4 h until the OD600 was between 0.6 and 0.8; and during this process, 5 g/L of yeast extract solution was added to increase a strain concentration.
(§1) The culture process of the strain was operated in the anaerobic glove box. After the operation was completed, the strain was well sealed with an anaerobic bag or an anaerobic box, taken out and then cultured in the constant-temperature incubator.

[2] = system: Porphyromonas gingivalis ATCC 33277; test: as above; type: cell-based
Description: S5, Culture of Porphyromonas gingivalis strain: • the strain stored at −80° C. was resuscitated in the anaerobic glove box with a Colombian blood agar plate, and statically cultured at 37° C. in the constant-temperature incubator for 5-7 days.
as §1

H. pylori ATCC 43504 = test: MIC determination using broth microdilution method, Helicobacter pylori; type: cell-based; conditions: for MIC: Helicobacter pylori, ATCC43504; for inhibitory activity against drug-resistant bacteria, in words: metronidazole-resistant H. pylori ATCC 43504, versus metronidazole
Description: (§2) • 1) A frozen solution stored at −80° C. was taken out, and thawed at room temperature; 100 μL of bacterial solution was taken with a pipette, coated onto a Columbia blood agar plate (finished-product medium), put invertedly in a […] culture box, placed in a micro-aerobic gas production bag to achieve a micro-aerobic environment, and cultured at 37° C. for 2-3 days. • 2) A sterile inoculation ring was used to pick Helicobacter pylori single colonies (transparent water droplets) grown on the Colombian blood agar medium and inoculated in the above liquid medium; and cultured at 37° C. in a micro-aerobic environment for 3 days. • 3) A required concentration (absorbance) for the experiment was reached after culture, and the bacterial solution was taken for subsequent experiments.
(§3) The drug concentration at which bacteria ceased to grow or grew at the most significant reduction level was referred to as the MIC value.

H. pylori NCTC 11637 = test: as above; type: cell-based; conditions: for MIC: Helicobacter pylori, NCTC11637; for inhibitory activity against drug-resistant bacteria, in words: metronidazole-resistant H. pylori NCTC 11637, versus metronidazole
Description: as §2, §3

H. pylori ATCC 26695 = test: as above; type: cell-based
Description: as §2, §3

[3] = system: H. pylori Sydney strain SS1; test: as above; type: cell-based
Description: as §2, §3

[4] = system: Bacteroides fragilis ATCC 25285; test: MIC determination using broth microdilution method, anaerobic bacteria; type: cell-based
Description: as §1

[5] = system: Clostridioides difficile infection (spores, 027 Type); test: Clostridioides difficile infection (CDI) mouse model; type: in vivo, C57BL/6 mice; conditions: for number of surviving mice: 10 animals per group
Description: • 1) Experimental animals: C57BL/6, 4-6 weeks old, female.
In order to evaluate the efficacy of the compounds of the present application on Clostridioides difficile infection, an animal model of Clostridioides difficile infection was established, as shown in FIG. 1. […] On Day 0, the mice were administrated with 10^5 CFU/mL of spores by gavage; and on Days 1 and 2, the mice were administrated with 10^6 CFU/mL of spores by gavage. Starting from Day 3, the mice were given 7 days of drug treatment, and all mice were euthanized at the end of the experiment, except for the death of mice during the treatment.
Two of the conjugates, SCUT1-2 and SCUT1-6, with the optional in-vitro inhibitory activities were selected. […] The therapeutic effect of the conjugate of the present application in the treatment of Clostridioides difficile infection was evaluated.

[6] = ATCC33277, Porphyromonas gingivalis ATCC 33277, broth microdilution, anaerobic, 37° C., 48 h, read-out: MIC
[7] = H. pylori ATCC 43504(R), metronidazole-resistant strain, read-out: MIC
[8] = H. pylori NCTC 11637(R), metronidazole-resistant strain, read-out: MIC
[9] = ATCC26695, H. pylori ATCC 26695(S), metronidazole-susceptible strain, read-out: MIC
[10] = H. pylori Sydney strain SS1, read-out: MIC
[11] = ATCC25285, Bacteroides fragilis ATCC 25285, broth microdilution, anaerobic, 37° C., 48 h, read-out: MIC
[12] = Day 3 (before the administration), 50 mg/kg groups

Structure (SMILES) | MIC [1] [µg/mL] | inhibitory effect on Clostridioides difficile (ATCC 43255), in words [1] | MIC [2, 6] [µg/mL] | MIC (H. pylori ATCC 43504; [7]) [µg/mL] | MIC (H. pylori NCTC 11637; [8]) [µg/mL] | MIC (H. pylori ATCC 26695; [9]) [µg/mL] | MIC [3, 10] [µg/mL] | MIC [4, 11] [µg/mL] | number of mice with diarrhea [5, 12] | number of surviving mice [5, 12] | number of mice with diarrhea ([5]; Day 4, 50 mg/kg) | number of surviving mice ([5]; Day 4, 50 mg/kg) | number of mice with diarrhea ([5]; Day 5, 50 mg/kg) | number of surviving mice ([5]; Day 5, 50 mg/kg) | number of mice with diarrhea ([5]; Day 6, 50 mg/kg) | number of surviving mice ([5]; Day 6, 50 mg/kg) | number of mice with diarrhea ([5]; Day 7, 50 mg/kg) | number of surviving mice ([5]; Day 7, 50 mg/kg) | number of mice with diarrhea ([5]; Day 8, 50 mg/kg) | number of surviving mice ([5]; Day 8, 50 mg/kg) | further results
Cc1ncc([N+](=O)[O-])n1CCOC(=O)CC[C@@H](C)[C@H]1CC[C@H]2[C@@H]3[C@H](O)C[C@@H]4C[C@H](O)CC[C@]4(C)[C@H]3CC[C@]12C [SCUT1-3] | 0.12 (≈ 0.22 µM) | particularly prominent | 0.5 (≈ 0.916 µM) | 4 (≈ 7.33 µM) | 8 (≈ 14.7 µM) | 4 (≈ 7.33 µM) | 8 (≈ 14.7 µM) | 4 (≈ 7.33 µM) |  |  |  |  |  |  |  |  |  |  |  |  | inhibitory activity against drug-resistant bacteria, in words (H. pylori ATCC 43504): significantly promoted; inhibitory activity against drug-resistant bacteria, in words (H. pylori NCTC 11637): significantly promoted
C[C@H](CCC(=O)O)[C@H]1CC[C@H]2[C@@H]3[C@H](O)C[C@@H]4C[C@H](O)CC[C@]4(C)[C@H]3CC[C@]12C [CDCA, chenodeoxycholic acid, reference compound] | 8 (≈ 20.4 µM) |  | > 32 |  |  |  |  | > 32 |  |  |  |  |  |  |  |  |  |  |  |  | 
Cc1ncc([N+](=O)[O-])n1CCOC(=O)CC[C@@H](C)[C@H]1CC[C@H]2[C@@H]3C[C@H](O)[C@@H]4C[C@H](O)CC[C@]4(C)[C@H]3CC[C@]12C [SCUT1-5] | 0.25 (≈ 0.458 µM) |  | 2 (≈ 3.66 µM) | 4 (≈ 7.33 µM) | 32 (≈ 58.6 µM) | 8 (≈ 14.7 µM) | 16 (≈ 29.3 µM) | 2 (≈ 3.66 µM) |  |  |  |  |  |  |  |  |  |  |  |  | 
Cc1ncc([N+](=O)[O-])n1CCOC(=O)CC[C@@H](C)[C@H]1CC[C@H]2[C@@H]3C(=O)C[C@@H]4C[C@H](O)CC[C@]4(C)[C@H]3C[C@H](O)[C@]12C [SCUT1-8] | 1 (≈ 1.79 µM) |  | 1 (≈ 1.79 µM) | 16 (≈ 28.6 µM) | 64 (≈ 114 µM) | 8 (≈ 14.3 µM) | 8 (≈ 14.3 µM) | 1 (≈ 1.79 µM) |  |  |  |  |  |  |  |  |  |  |  |  | 
C[C@H](CCC(=O)O)[C@H]1CC[C@H]2[C@@H]3[C@@H](O)C[C@@H]4C[C@H](O)CC[C@]4(C)[C@H]3CC[C@]12C [UDCA, ursodeoxycholic acid, reference compound] | 16 (≈ 40.8 µM) |  | > 32 | > 128 | > 128 | > 32 | > 32 | > 32 | 9 number of mice | 10 number of mice | 9 number of mice | 10 number of mice | 7 number of mice | 10 number of mice | 6 number of mice | 10 number of mice | 4 number of mice | 10 number of mice | 5 number of mice | 10 number of mice | number of mice with diarrhea ([5]; Day 9, 50 mg/kg): 5 number of mice; number of surviving mice ([5]; Day 9, 50 mg/kg): 10 number of mice
Cc1ncc([N+](=O)[O-])n1CCOC(=O)CC[C@@H](C)[C@H]1CC[C@H]2[C@@H]3[C@H](O)C[C@H]4C[C@H](O)CC[C@]4(C)[C@H]3CC[C@]12C [SCUT1-4] | 2 (≈ 3.66 µM) |  | 0.5 (≈ 0.916 µM) | 4 (≈ 7.33 µM) | 4 (≈ 7.33 µM) | 4 (≈ 7.33 µM) | 4 (≈ 7.33 µM) | 2 (≈ 3.66 µM) |  |  |  |  |  |  |  |  |  |  |  |  | inhibitory activity against drug-resistant bacteria, in words (H. pylori ATCC 43504): significantly promoted; inhibitory activity against drug-resistant bacteria, in words (H. pylori NCTC 11637): significantly promoted
Cc1ncc([N+](=O)[O-])n1CCOC(=O)CC[C@@H](C)[C@H]1CC[C@H]2[C@@H]3[C@@H](O)C[C@@H]4C[C@H](O)CC[C@]4(C)[C@H]3CC[C@]12C [SCUT1-2] | 0.12 (≈ 0.22 µM) | particularly prominent | 0.25 (≈ 0.458 µM) | 8 (≈ 14.7 µM) | 16 (≈ 29.3 µM) | 4 (≈ 7.33 µM) | 8 (≈ 14.7 µM) | 1 (≈ 1.83 µM) | 10 (10) number of mice | 10 (10) number of mice | 7 number of mice | 10 number of mice | 4 number of mice | 10 number of mice | 2 number of mice | 10 number of mice | 1 number of mice | 10 number of mice | 1 number of mice | 10 number of mice | death of mice during the treatment ([5]; 50 mg/kg, 7 days of drug treatment): no mice died; therapeutic effect, in words ([5]; 50 mg/kg, compared with Metronidazole, UDCA and MIX groups): a good therapeutic effect; number of mice with diarrhea ([5]; Day 9, 50 mg/kg): 1 number of mice; number of surviving mice ([5]; Day 9, 50 mg/kg): 10 number of mice; diarrhea rate ([5]; at the endpoint of treatment, 50 mg/kg, Model group 100%): 10%
Cc1ncc([N+](=O)[O-])n1CCOC(=O)CC[C@@H](C)[C@H]1CC[C@H]2[C@@H]3CC[C@@H]4C[C@H](O)CC[C@]4(C)[C@H]3CC[C@]12C [SCUT1-1] | 0.5 (≈ 0.944 µM) |  |  |  |  |  |  |  |  |  |  |  |  |  |  |  |  |  |  |  | MIC ([2]; Porphyromonas gingivalis, ATCC33277, 48 h): 2 µg/mL (≈ 3.78 µM); MIC (H. pylori ATCC 43504): > 128 µg/mL; MIC (H. pylori NCTC 11637): 16 µg/mL (≈ 30.2 µM); MIC (H. pylori ATCC 26695; ATCC26695): 8 µg/mL (≈ 15.1 µM); MIC [3]: 8 µg/mL (≈ 15.1 µM); MIC ([4]; Bacteroides fragilis, ATCC25285, 48 h): 1 µg/mL (≈ 1.89 µM)
C[C@H](CCC(=O)O)[C@H]1CC[C@H]2[C@@H]3[C@H](O)[C@H](O)[C@@H]4C[C@H](O)CC[C@]4(C)[C@H]3CC[C@]12C [HCA, hyocholic acid, reference compound] | 32 (≈ 78.3 µM) |  | > 32 |  |  |  |  | > 32 |  |  |  |  |  |  |  |  |  |  |  |  | 
Cc1ncc([N+](=O)[O-])n1CCOC(=O)CC[C@@H](C)[C@H]1CC[C@H]2[C@@H]3[C@H](O)[C@H](O)[C@@H]4C[C@H](O)CC[C@]4(C)[C@H]3CC[C@]12C [SCUT1-6] | 0.06 (≈ 0.107 µM) | particularly prominent | 0.25 (≈ 0.445 µM) | 8 (≈ 14.2 µM) | 8 (≈ 14.2 µM) | 4 (≈ 7.12 µM) | 16 (≈ 28.5 µM) | 2 (≈ 3.56 µM) | 8 number of mice | 10 number of mice | 10 (10) number of mice | 10 (10) number of mice | 8 number of mice | 10 number of mice | 7 number of mice | 10 number of mice | 5 number of mice | 10 number of mice | 6 number of mice | 10 number of mice | promotion of inhibitory activity against Clostridioides difficile relative to metronidazole ([1]; at the same dosage, versus metronidazole): more than 50 times; number of mice with diarrhea ([5]; Day 9, 50 mg/kg): 5 number of mice; number of surviving mice ([5]; Day 9, 50 mg/kg): 10 number of mice; changes in mouse body weights ([5]; during drug treatment from Day 3, 50 mg/kg): continued to decrease until the third day of drug treatment (Day 5)
